Test results as given in patent US20080033006A1, “1,2,4-Triazolo[ 1,5-A] Pyridines as Gastric Acid Secretion Inhibitors” (Altana Pharma AG, priority 2004, published 2008).

Tests used:
[1] = test system: pentagastrin-stimulated acid secretion of the perfused rat stomach; experiment: Secretion-inhibiting action on the perfused rat stomach (pentagastrin-stimulated acid secretion); format: in vivo; conditions: anesthetized CD rat, dose 1 μmol/kg i.d.; for inhibition in vivo at 1 µmol/kg: intraduodenal
Description: In Table A which follows, the influence of the compounds according to the invention on the pentagastrin-stimulated acid secretion of the perfused rat stomach after intraduodenal administration in vivo is shown.
The abdomen of anesthetized rats (CD rat, female, 200-250 g; 1.5 g/kg i.m. urethane) was opened after tracheotomy by a median upper abdominal incision and a PVC catheter was fixed transorally in the esophagus and another via the pylorus such that the ends of the tubes just projected into the gastric lumen. The catheter leading from the pylorus led outward into the right abdominal wall through a side opening.
After thorough rinsing (about 50-100 ml), warm (37° C.) physiological NaCl solution was continuously passed through the stomach ([…], pH 6.8-6.9; Braun-Unita I). The pH (pH meter 632, glass electrode EA 147; φ=5 mm, Metrohm) and, by titration with a freshly prepared 0.01N NaOH solution to pH 7 (Dosimat 665 Metrohm), the secreted HCl were determined in the effluent in each case collected at an interval of 15 minutes.
The gastric secretion was stimulated by continuous infusion of 1 μg/kg (=1.65 ml/h) of i.v. pentagastrin (left femoral vein) about 30 min after the end of the operation (i.e. after determination of 2 preliminary fractions). The substances to be tested were administered intraduodenally in a 2.5 ml/kg liquid volume 60 min after the start of the continuous pentagastrin infusion.
The body temperature of the animals was kept at a constant 37.8-38° C. by infrared irradiation and heat pads (automatic, stepless control by means of a rectal temperature sensor).

Row | Compound | melting point [°C] | inhibition in vivo at 1 µmol/kg [1] [%] | Inhibition of acid secretion [1] [%]
1 | CCc1cccc(C)c1CNc1cc(C(=O)N(C)C)cn2nc(C)nc12 [Example 3, 8-(2-Ethyl-6-methylbenzylamino)-N,N,2-trimethyl[1,2,4]triazolo[1,5-a]pyridine-6-carboxamide] | – | > 25 | –
2 | CCc1cccc(C)c1CNc1cc(C(=O)NCCOC)cn2nc(C)nc12 [Example 4, 8-(2-Ethyl-6-methylbenzylamino)-N-(2-methoxyethyl)-2-methyl[1,2,4]triazolo-[1,5a]-pyridine-6-carboxamide] | – | – | <25
3 | CCc1cccc(C)c1CNc1cc(CN)cn2nc(C)nc12 [Example 9, 8-(2-Ethyl-6-methylbenzylamino)-6-aminomethyl-2-methyl[1,2,4]triazolo-[1,5-a]pyridine] | – | < 25 | –
4 | CCc1cccc(C)c1CNc1cc(CN2CCOCC2)cn2nc(C)nc12 [Example 10, 8-(2-Ethyl-6-methylbenzylamino)-6-morpholinomethyl-2-methyl[1,2,4]triazolo-[1,5-a]-pyridine] | 97.2 | < 25 | –
5 | CCc1cccc(C)c1CNc1cc(Cn2ccnc2)cn2nc(C)nc12 [Example 11, 8-(2-Ethyl-6-methylbenzylamino)-6-(imidazol-1-ylmethyl)-2-methyl[1,2,4]triazolo-[1,5-a]-pyridine] | 158.5 | > 25 | –
6 | CCc1cccc(C)c1CNc1cc(COCCOC)cn2nc(C)nc12.Cl [Example 13, 8-(2-Ethyl-6-methylbenzylamino)-6-(2-methoxyethoxymethyl)-2-methyl-[1,2,4]triazolo[1,5-a]pyridine hydrochloride] | 120.2 | > 25 | –

Continued, in another order:

Row | melting point [°C] | Compound | inhibition in vivo at 1 µmol/kg [1] [%] | Inhibition of acid secretion [1] [%]
7 | 139.8 | CCc1cccc(C)c1CNc1cc(C(=O)OC)cn2nc(C)nc12 [Example 1, 8-(2-Ethyl-6-methylbenzylamino)-2-methyl[1,2,4]triazolo[1,5-a]pyridine-6-carboxylic acid methyl ester] | – | –
8 | 264.1 | CCc1cccc(C)c1CNc1cc(C(=O)O)cn2nc(C)nc12 [Example 2, 8-(2-Ethyl-6-methyl-benzylamino)-2-methyl[1,2,4]triazolo[1,5-a]pyridine-6-carboxylic acid] | – | –
9 | 98.7 | CCc1cccc(C)c1CNc1cc(COC)cn2nc(C)nc12 [Example 5, 8-(2-Ethyl-6-methylbenzylamino)-6-methoxymethyl-2-methyl[1,2,4]triazolo-[1,5-a]pyridine] | > 25 | –
10 | 180.3 | CCc1cccc(C)c1CNc1cc(CO)cn2nc(C)nc12 [Example 6, 8-(2-Ethyl-6-methylbenzylamino)-6-hydroxymethyl-2-methyl[1,2,4]triazolo-[1,5-a]pyridine] | < 25 | –
11 | 235.8 | CCc1cccc(C)c1CNc1cc(CN(C)C)cn2nc(C)nc12.Cl [Example 7, 8-(2-Ethyl-6-methylbenzylamino)-6-dimethylaminomethyl-2-methyl[1,2,4]triazolo[1,5-a]pyridine hydrochloride] | > 25 | –
12 | 179 | CCc1cccc(C)c1CNc1cc(CNC)cn2nc(C)nc12 [Example 8, 8-(2-Ethyl-6-methylbenzylamino)-6-methylaminomethyl-2-methyl[1,2,4]triazolo-[1,5-a]-pyridine] | > 25 | –
